The values that follow come from US5688938A, “Calcium receptor-active molecules” (priority 1995, dated 1997).

Where two headings read alike, the source gives them in different places.

Assay [1] deals with T1, C-cell calcium receptor (Rattus norvegicus, UniProt P48442).
T1 construct: Neoplastic C-cells derived from a rat medullary thyroid carcinoma (rMTC 6-23) were obtained from American Type Culture Collection; host or cells: rMTC 6-23 cells
T1 sequence (P48442 20-1079): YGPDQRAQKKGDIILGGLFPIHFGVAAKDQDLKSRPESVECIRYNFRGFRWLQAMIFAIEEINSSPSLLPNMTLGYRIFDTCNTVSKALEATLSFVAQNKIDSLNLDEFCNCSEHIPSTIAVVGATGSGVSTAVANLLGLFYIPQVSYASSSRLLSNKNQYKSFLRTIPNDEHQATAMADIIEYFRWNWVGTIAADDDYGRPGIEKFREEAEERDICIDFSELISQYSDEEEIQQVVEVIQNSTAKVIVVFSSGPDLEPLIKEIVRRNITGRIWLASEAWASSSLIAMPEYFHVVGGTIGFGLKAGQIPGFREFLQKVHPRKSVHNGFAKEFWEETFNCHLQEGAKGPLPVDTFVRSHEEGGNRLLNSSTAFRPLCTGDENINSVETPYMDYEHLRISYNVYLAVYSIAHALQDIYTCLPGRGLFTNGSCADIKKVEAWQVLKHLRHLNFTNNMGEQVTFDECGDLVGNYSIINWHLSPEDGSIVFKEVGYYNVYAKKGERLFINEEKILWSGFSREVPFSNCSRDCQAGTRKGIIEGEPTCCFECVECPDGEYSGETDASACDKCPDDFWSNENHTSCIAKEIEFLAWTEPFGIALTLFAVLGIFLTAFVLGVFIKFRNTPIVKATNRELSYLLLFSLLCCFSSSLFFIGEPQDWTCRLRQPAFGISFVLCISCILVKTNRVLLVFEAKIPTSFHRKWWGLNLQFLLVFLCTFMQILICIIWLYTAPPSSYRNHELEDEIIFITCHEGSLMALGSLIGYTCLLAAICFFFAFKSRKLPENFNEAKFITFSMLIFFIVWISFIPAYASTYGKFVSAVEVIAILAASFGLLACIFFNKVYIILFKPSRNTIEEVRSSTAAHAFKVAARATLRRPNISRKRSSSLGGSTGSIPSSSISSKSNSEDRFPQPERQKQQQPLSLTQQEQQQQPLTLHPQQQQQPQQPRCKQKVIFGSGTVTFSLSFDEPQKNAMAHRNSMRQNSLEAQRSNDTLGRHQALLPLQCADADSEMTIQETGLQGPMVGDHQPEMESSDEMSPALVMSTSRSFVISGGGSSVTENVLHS
The assay can be described thus: cell-based. The assay is classed as cell-based. The conditions noted are these: for EC50: rMTC 6-23 cells.
Excerpt: To assess the effects of molecular polycations on C-cells, a neoplastic cell line, derived from a rat medullary thyroid carcinoma (rMTC 6-23 cells) was used.

Assay [2] is described as follows: hypocalcemic response in thyroidectomized rats. Type of assay: in vivo, rat. The following applies: 3 to 100 mg/kg p.o. From the text:
In subsequent studies, rats received a thyroidectomy (parathyroid glands intact). This surgical procedure effectively removed the C-cells secreting calcitonin and therefore enabled the relative contributions of PTH and calcitonin to the hypocalcemic effect of this compound to be determined. […] The only difference was that the rate of onset of the hypocalcemic response was somewhat delayed in thyroidectomized animals. […] Stimulatory effects of this compound on calcitonin secretion increases the rate of onset, but not the extent, of hypocalcemia.

Assay [3] deals with T2, parathyroid cell calcium receptor (Homo sapiens, UniProt P41180).
T2 construct: Dissociated parathyroid cells were prepared from a parathyroid adenoma obtained by surgery from a patient with primary hyperparathyroidism; endogenous in cells; host or cells: primary dissociated human parathyroid cells (adenoma or hyperplastic tissue from surgery)
T2 sequence (P41180 20-1078): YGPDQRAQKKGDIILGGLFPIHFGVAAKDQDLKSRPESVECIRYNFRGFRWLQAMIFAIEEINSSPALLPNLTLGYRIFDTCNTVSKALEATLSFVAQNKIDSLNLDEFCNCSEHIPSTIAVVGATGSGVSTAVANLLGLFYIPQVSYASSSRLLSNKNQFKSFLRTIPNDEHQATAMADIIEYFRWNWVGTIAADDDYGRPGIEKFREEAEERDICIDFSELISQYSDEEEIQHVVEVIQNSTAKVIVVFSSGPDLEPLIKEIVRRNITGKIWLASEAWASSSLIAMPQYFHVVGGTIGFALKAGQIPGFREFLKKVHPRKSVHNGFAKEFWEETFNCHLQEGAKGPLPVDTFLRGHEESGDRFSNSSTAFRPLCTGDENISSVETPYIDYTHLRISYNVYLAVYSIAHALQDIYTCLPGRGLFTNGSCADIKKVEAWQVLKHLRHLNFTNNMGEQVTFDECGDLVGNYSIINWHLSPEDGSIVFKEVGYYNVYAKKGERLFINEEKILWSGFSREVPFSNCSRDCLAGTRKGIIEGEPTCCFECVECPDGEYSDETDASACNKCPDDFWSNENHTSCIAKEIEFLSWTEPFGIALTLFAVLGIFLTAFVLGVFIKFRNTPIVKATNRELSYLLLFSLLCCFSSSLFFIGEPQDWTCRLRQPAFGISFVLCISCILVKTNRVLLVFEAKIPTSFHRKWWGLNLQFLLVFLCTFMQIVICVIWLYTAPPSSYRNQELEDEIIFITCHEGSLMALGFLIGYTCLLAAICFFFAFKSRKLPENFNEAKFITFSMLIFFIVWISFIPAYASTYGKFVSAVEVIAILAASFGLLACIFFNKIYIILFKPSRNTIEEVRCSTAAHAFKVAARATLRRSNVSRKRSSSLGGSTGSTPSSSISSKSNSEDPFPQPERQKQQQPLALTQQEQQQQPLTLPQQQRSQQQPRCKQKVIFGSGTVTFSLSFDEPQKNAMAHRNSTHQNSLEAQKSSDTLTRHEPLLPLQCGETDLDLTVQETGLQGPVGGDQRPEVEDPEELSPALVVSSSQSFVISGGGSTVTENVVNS
Briefly: [Ca^2+]i (fura-2) in human parathyroid cells. Type of assay: cell-based.
Description: This section describes procedures used to obtain and treat parathyroid cells from calves and humans. […] Human parathyroid glands, were obtained from patients undergoing surgical removal of parathyroid tissue for primary or uremic hyperparathyroidism (uremic HPT), and were treated similarly to bovine tissue.
Dissociated parathyroid cells were prepared from a parathyroid adenoma obtained by surgery from a patient with primary hyperparathyroidism.

For the molecule `NCCCNCCCCNCCCNCCCNCCCNC(=O)Cc1c[nH]c2ccccc12` [NPS 019, reference compound], the “transient increase in [Ca^2+]i in C-cells” value in assay [1] (10 μM, 0.5 mM [Ca^2+]) is on record as “refractory to inhibition by La^3+”. Moreover, the EC50 (in general, the concentration giving half of the maximal effect) worked out at 5 µM in assay [1] (Table 6, read-out: EC50 C-CELL) and 5 µM in assay [1] (read-out: EC50 for mobilizing intracellular Ca^2+ in C-cells).

Consider `COc1cccc([C@@H](C)NCCCc2ccccc2Cl)c1` [NPS R-568, (R)-(+)-N-[3-(2-chlorophenyl)propyl]-α-methyl-3-methoxybenzylamine], for which the “hypocalcemic response in thyroidectomized animals” value in assay [2] is listed as “hypocalcemic response equal in magnitude to that produced in sham-operated animals”.

Take `NC[C@@H]1O[C@H](O[C@H]2[C@@H](O)[C@H](O[C@@H]3[C@@H](O)[C@H](N)C[C@H](N)[C@H]3O[C@H]3O[C@H](CN)[C@@H](O)[C@H](O)[C@H]3N)O[C@@H]2CO)[C@H](N)[C@@H](O)[C@@H]1O` [Neomycin]: the “effect on basal [Ca^2+]i in C-cells” value in assay [1] is “without effect on basal [Ca^2+ ]i”. For the same molecule, in assay [3] (20 μM), the “increase in [Ca^2+]i” value is “large increase in [Ca^2+ ]i”. The “increases in [Ca^2+]i” value in assay [3] (human adenoma cells) was “not only a transient, but additionally a steady-state increase in [Ca^2+ ]i”. Also, in assay [3] (human parathyroid cells), the 50% effective concentration (EC50) came to 20 µM.
